Measured values from PubChem BioAssay (NCI).
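The concentration for 50% growth inhibition is given as GI50. TGI is the concentration that stops growth completely.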

What was measured:
Test in all cases: growth of human tumour cells (NCI), 384-well format
BT-549 breast = system: BT-549 breast
PC-3 prostate = system: PC-3 prostate
HCT-15 colon = system: HCT-15 colon
HCT-116 colon = system: HCT-116 colon
SF-295 CNS = system: SF-295 CNS
MCF7 breast = system: MCF7 breast
HL-60(TB) leukemia = system: HL-60(TB) leukemia
HT29 colon = system: HT29 colon
UACC-62 melanoma = system: UACC-62 melanoma
A498 renal = system: A498 renal
NCI-H322M lung = system: NCI-H322M lung
SK-OV-3 ovarian = system: SK-OV-3 ovarian
RXF 393 renal = system: RXF 393 renal
MDA-MB-468 breast = system: MDA-MB-468 breast
CCRF-CEM leukemia = system: CCRF-CEM leukemia
NCI-H23 lung = system: NCI-H23 lung
NCI-H522 lung = system: NCI-H522 lung
SF-539 CNS = system: SF-539 CNS
EKVX NSCLC = system: EKVX NSCLC
OVCAR-3 ovarian = system: OVCAR-3 ovarian
NCI-H226 lung = system: NCI-H226 lung
HCC-2998 colon = system: HCC-2998 colon
SNB-19 CNS = system: SNB-19 CNS
DU-145 prostate = system: DU-145 prostate
SNB-75 CNS = system: SNB-75 CNS
NCI-H460 NSCLC = system: NCI-H460 NSCLC
CAKI-1 renal = system: CAKI-1 renal
KM12 colon = system: KM12 colon
NCI/ADR-RES ovarian = system: NCI/ADR-RES ovarian
OVCAR-4 ovarian = system: OVCAR-4 ovarian
HS 578T breast = system: HS 578T breast
SK-MEL-2 melanoma = system: SK-MEL-2 melanoma
MDA-MB-435 melanoma = system: MDA-MB-435 melanoma
ACHN renal = system: ACHN renal
A549 NSCLC = system: A549 NSCLC
RPMI-8226 leukemia = system: RPMI-8226 leukemia
LOX IMVI melanoma = system: LOX IMVI melanoma
K-562 leukemia = system: K-562 leukemia
HOP-92 NSCLC = system: HOP-92 NSCLC
SK-MEL-5 melanoma = system: SK-MEL-5 melanoma
TK-10 renal = system: TK-10 renal
HOP-62 NSCLC = system: HOP-62 NSCLC
786-0 renal = system: 786-0 renal
M14 melanoma = system: M14 melanoma
SN12C renal = system: SN12C renal
SK-MEL-28 melanoma = system: SK-MEL-28 melanoma
COLO 205 colon = system: COLO 205 colon
U251 glioblastoma = system: U251 glioblastoma
UACC-257 melanoma = system: UACC-257 melanoma
IGROV1 ovarian = system: IGROV1 ovarian
SW-620 colon = system: SW-620 colon
MOLT-4 leukemia = system: MOLT-4 leukemia
OVCAR-8 ovarian = system: OVCAR-8 ovarian
SF-268 CNS = system: SF-268 CNS
MALME-3M melanoma = system: MALME-3M melanoma

How did the GI50 (BT-549 breast) turn out when `CN(C)c1ccc(N)c2ccccc12` was run?
The GI50 was 1.5 µM.

What about the TGI (BT-549 breast) of the same compound?
The TGI was 2.84 µM.

And the GI50 (PC-3 prostate)?
The GI50 was 1.34 µM.

What about the TGI (PC-3 prostate) of the same compound?
The TGI was 6.24 µM.

What about the GI50 (HCT-15 colon) of the same compound?
The GI50 was 1.47 µM.

What about the TGI (HCT-15 colon) of the same compound?
The TGI was 3.54 µM.

And the GI50 (HCT-116 colon)?
Its GI50 is 2.2 µM.

And the TGI (HCT-116 colon)?
Its TGI is 5.93 µM.

And the GI50 (SF-295 CNS)?
Its GI50 is 7.17 µM.

And the TGI (SF-295 CNS)?
Its TGI is 20.1 µM.

And the GI50 (MCF7 breast)?
The GI50 was 1.34 µM.

What about the TGI (MCF7 breast) of the same compound?
The TGI was 2.64 µM.

What about the GI50 (HL-60(TB) leukemia) of the same compound?
Its GI50 is 0.814 µM.

And the TGI (HL-60(TB) leukemia)?
Its TGI is 2.1 µM.

What about the GI50 (HT29 colon) of the same compound?
The GI50 was 4.55 µM.

What about the TGI (HT29 colon) of the same compound?
The TGI was 16.4 µM.

And the GI50 (UACC-62 melanoma)?
The GI50 was 1.24 µM.

And the TGI (UACC-62 melanoma)?
Its TGI is 2.5 µM.

And the GI50 (A498 renal)?
The GI50 was 11.9 µM.

And the TGI (A498 renal)?
The TGI was 24.3 µM.

And the GI50 (NCI-H322M lung)?
The GI50 was 2.1 µM.

And the TGI (NCI-H322M lung)?
Its TGI is 3.86 µM.

What about the GI50 (SK-OV-3 ovarian) of the same compound?
Its GI50 is 10.1 µM.

And the TGI (SK-OV-3 ovarian)?
Its TGI is 21.8 µM.

What about the GI50 (RXF 393 renal) of the same compound?
The GI50 was 2.68 µM.

What about the TGI (RXF 393 renal) of the same compound?
Its TGI is 10.5 µM.

And the GI50 (MDA-MB-468 breast)?
The GI50 was 0.591 µM.

What about the TGI (MDA-MB-468 breast) of the same compound?
Its TGI is 4.61 µM.

And the GI50 (CCRF-CEM leukemia)?
The GI50 was 4.65 µM.

And the TGI (CCRF-CEM leukemia)?
The TGI was 19.1 µM.

And the GI50 (NCI-H23 lung)?
Its GI50 is 1.47 µM.

And the TGI (NCI-H23 lung)?
The TGI was 2.88 µM.

And the GI50 (NCI-H522 lung)?
The GI50 was 2.77 µM.

And the TGI (NCI-H522 lung)?
Its TGI is 11.6 µM.

What about the GI50 (SF-539 CNS) of the same compound?
The GI50 was 1.75 µM.

What about the TGI (SF-539 CNS) of the same compound?
Its TGI is 3.3 µM.

What about the GI50 (EKVX NSCLC) of the same compound?
The GI50 was 1.7 µM.

And the TGI (EKVX NSCLC)?
The TGI was 8.1 µM.

And the GI50 (OVCAR-3 ovarian)?
The GI50 was 1.16 µM.

And the TGI (OVCAR-3 ovarian)?
The TGI was 2.52 µM.

And the GI50 (NCI-H226 lung)?
The GI50 was 1.28 µM.

What about the TGI (NCI-H226 lung) of the same compound?
Its TGI is 7.63 µM.

What about the GI50 (HCC-2998 colon) of the same compound?
The GI50 was 2.4 µM.

And the TGI (HCC-2998 colon)?
Its TGI is 16.2 µM.

And the GI50 (SNB-19 CNS)?
Its GI50 is 3.4 µM.

What about the TGI (SNB-19 CNS) of the same compound?
Its TGI is 11.7 µM.

And the GI50 (DU-145 prostate)?
The GI50 was 1.41 µM.

What about the TGI (DU-145 prostate) of the same compound?
The TGI was 2.73 µM.

And the GI50 (SNB-75 CNS)?
The GI50 was 2.39 µM.

And the TGI (SNB-75 CNS)?
Its TGI is 7.53 µM.

And the GI50 (NCI-H460 NSCLC)?
The GI50 was 2.93 µM.

What about the TGI (NCI-H460 NSCLC) of the same compound?
Its TGI is 10.4 µM.

And the GI50 (CAKI-1 renal)?
Its GI50 is 13.1 µM.

And the TGI (CAKI-1 renal)?
The TGI was 26 µM.

And the GI50 (KM12 colon)?
Its GI50 is 3.65 µM.

And the TGI (KM12 colon)?
The TGI was 14.8 µM.

And the GI50 (NCI/ADR-RES ovarian)?
Its GI50 is 11.8 µM.

What about the TGI (NCI/ADR-RES ovarian) of the same compound?
Its TGI is 24.6 µM.

What about the GI50 (OVCAR-4 ovarian) of the same compound?
Its GI50 is 0.397 µM.

What about the TGI (OVCAR-4 ovarian) of the same compound?
The TGI was 3.65 µM.

And the GI50 (HS 578T breast)?
Its GI50 is 2.44 µM.

And the TGI (HS 578T breast)?
The TGI was 6.72 µM.

What about the GI50 (SK-MEL-2 melanoma) of the same compound?
Its GI50 is 1.26 µM.

And the TGI (SK-MEL-2 melanoma)?
The TGI was 2.77 µM.

And the GI50 (MDA-MB-435 melanoma)?
The GI50 was 1.36 µM.

And the TGI (MDA-MB-435 melanoma)?
The TGI was 2.65 µM.

And the GI50 (ACHN renal)?
Its GI50 is 12.1 µM.

What about the TGI (ACHN renal) of the same compound?
Its TGI is 24.6 µM.

And the GI50 (A549 NSCLC)?
The GI50 was 4.16 µM.

What about the TGI (A549 NSCLC) of the same compound?
Its TGI is 16.6 µM.

And the GI50 (RPMI-8226 leukemia)?
Its GI50 is 1.83 µM.

What about the TGI (RPMI-8226 leukemia) of the same compound?
The TGI was 5.98 µM.

What about the GI50 (LOX IMVI melanoma) of the same compound?
Its GI50 is 0.217 µM.

And the TGI (LOX IMVI melanoma)?
The TGI was 1.56 µM.

And the GI50 (K-562 leukemia)?
Its GI50 is 18.4 µM.

And the TGI (K-562 leukemia)?
The TGI was 32.4 µM.

What about the GI50 (HOP-92 NSCLC) of the same compound?
The GI50 was 5.85 µM.

What about the TGI (HOP-92 NSCLC) of the same compound?
The TGI was 19.5 µM.

What about the GI50 (SK-MEL-5 melanoma) of the same compound?
Its GI50 is 0.146 µM.

What about the TGI (SK-MEL-5 melanoma) of the same compound?
The TGI was 1.61 µM.

And the GI50 (TK-10 renal)?
Its GI50 is 11.3 µM.

What about the TGI (TK-10 renal) of the same compound?
Its TGI is 23.5 µM.

And the GI50 (HOP-62 NSCLC)?
The GI50 was 1.59 µM.

And the TGI (HOP-62 NSCLC)?
The TGI was 2.98 µM.

And the GI50 ([…]-0 renal)?
The GI50 was 2.16 µM.

What about the TGI (786-0 renal) of the same compound?
Its TGI is 9.6 µM.

And the GI50 (M14 melanoma)?
The GI50 was 1.5 µM.

And the TGI (M14 melanoma)?
The TGI was 2.84 µM.

And the GI50 (SN12C renal)?
The GI50 was 1.76 µM.

What about the TGI (SN12C renal) of the same compound?
The TGI was 3.19 µM.

What about the GI50 (SK-MEL-28 melanoma) of the same compound?
The GI50 was 1.76 µM.

What about the TGI (SK-MEL-28 melanoma) of the same compound?
The TGI was 3.71 µM.

What about the GI50 (COLO 205 colon) of the same compound?
Its GI50 is 2.09 µM.

And the TGI (COLO 205 colon)?
Its TGI is 4.21 µM.

What about the GI50 (U251 glioblastoma) of the same compound?
The GI50 was 7.75 µM.

And the TGI (U251 glioblastoma)?
The TGI was 20.4 µM.

What about the GI50 (UACC-257 melanoma) of the same compound?
Its GI50 is 1.04 µM.

And the TGI (UACC-257 melanoma)?
Its TGI is 2.22 µM.

What about the GI50 (IGROV1 ovarian) of the same compound?
Its GI50 is 1.86 µM.

What about the TGI (IGROV1 ovarian) of the same compound?
The TGI was 16.1 µM.

And the GI50 (SW-620 colon)?
Its GI50 is 1.64 µM.

And the TGI (SW-620 colon)?
The TGI was 3.11 µM.

What about the GI50 (MOLT-4 leukemia) of the same compound?
The GI50 was 0.802 µM.

What about the TGI (MOLT-4 leukemia) of the same compound?
Its TGI is 2.48 µM.

And the GI50 (OVCAR-8 ovarian)?
The GI50 was 5.33 µM.

What about the TGI (OVCAR-8 ovarian) of the same compound?
The TGI was 17.5 µM.

And the GI50 (SF-268 CNS)?
The GI50 was 8.32 µM.

And the TGI (SF-268 CNS)?
The TGI was 20.5 µM.

What about the GI50 (MALME-3M melanoma) of the same compound?
Its GI50 is 0.448 µM.

What about the TGI (MALME-3M melanoma) of the same compound?
Its TGI is 1.68 µM.
